Columns and labels:
[1] = mouse, in vivo
Experimental: (§1) After 5 minutes, 15 minutes, 30 minutes, 60 minutes, and 120 minutes from the administration, organs were dissected out of the mice (n=5).
as §1
(§2) (IB-PEG3)12-Ex4 (0.77 μCi) was administered to unanesthetized 6-week-old ddY mice (male, weight: 30 g) by intravenous injection (through the tail vein). After 5 minutes, 15 minutes, 30 minutes, 60 minutes, and 120 minutes from the administration, organs were dissected out of the mice (n=5). The weight and the radioactivity of each organ were determined, and an accumulation amount (% dose/g) of (IB-PEG3)12-Ex4 was calculated from the radioactivity per unit weight.
as §1
as §2, with “(FB-PEG3)12-Ex4 (5” for “(IB-PEG3)12-Ex4 (0.77”, “(FB-PEG3)12-Ex4” for “(IB-PEG3)12-Ex4”
as §2, with “(IB-ePEG12)12-Ex4 (0.21” for “(IB-PEG3)12-Ex4 (0.77”, “(IB-ePEG12)12-Ex4” for “(IB-PEG3)12-Ex4”

pancreatic β-cells = experiment: Two-dimensional imaging analysis (fluorescence and autoradiography) of pancreas sections; type: in vivo, MIP-GFP mouse; conditions: without blocking
Experimental: (IB-PEG3)12-Ex4 (5.6 μCi/100 μl) was administered to an unanesthetized MIP-GFP mouse (male, weight: 20 g) by intravenous injection, and after 30 minutes from the administration, the pancreas was dissected out of the mouse (n=1). Sections were cut out of the dissected pancreas, and each section was placed on a slide glass, covered with a cover glass. The fluorescence and the radioactivity (autoradiography) of each section were determined using an image analyzer (trade name: Typhoon 9410, manufactured by GE Health Care Inc.) (exposure time 24 hours).
Sections were cut out of the dissected pancreas, and each section was placed on a slide glass, covered with a cover glass. The fluorescence and the radioactivity (autoradiography) of each section were determined using an image analyzer (trade name: Typhoon 9410, manufactured by GE Health Care Inc.) (exposure time 48 hours).
Other than these, the fluorescence and the radioactivity were determined in the same manner as above.
(FB-PEG3)12-Ex4 (292 μCi/220 μl) was administered to an unanesthetized MIP-GFP mouse (male, weight: 20 g) by intravenous injection, and after 15 minutes from the administration, the pancreas was dissected out of the mouse (n=1). Sections were cut out of the dissected pancreas, and each section was placed on a slide glass, covered with a cover glass. […]

accumulation in the pancreas [1]	radioactive accumulation in the bone [1]	ratio of pancreas/blood [1]	ratio of pancreas/liver [1]	Substance	localization of the radioactivity signal versus GFP signal in pancreas sections (pancreatic β-cells)
exceeding 15 % dose/g	small	greater than 5	greater than 10	(FB-PEG3)12-Ex4	substantially consistent with that of the GFP signal
exceeding 25 % dose/g	–	greater than 5	greater than 10	(IB-PEG3)12-Ex4	substantially consistent with that of the GFP signal
exceeding 25 % dose/g	–	greater than 5	greater than 10	(IB-ePEG12)12-Ex4	–

Source: patent publication US9278146B2, “Peptide derivative and use of the same” (priority 2010, dated 2016)
